Assay results taken from ChEMBL document CHEMBL4610121, “Rapid Elaboration of Fragments into Leads by X-ray Crystallographic Screening of Parallel Chemical Libraries (REFiLX)” (J Med Chem, 2020).
Converted amounts (≈) assume the structure as drawn.

Key:
[1] = Solubility in PH 7.4 buffer by 1D 1H qNMR analysis; format: physicochemical
[2] = molecular target: T1, Thiol:disulfide interchange protein DsbA (Escherichia coli (strain K12), UniProt P0AEG4); experiment: Binding affinity to uniformly labeled 15N oxidized Escherichia coli DsbA by 1H-15N HSQC NMR spectroscopy
T1 sequence (P0AEG4 whole entry): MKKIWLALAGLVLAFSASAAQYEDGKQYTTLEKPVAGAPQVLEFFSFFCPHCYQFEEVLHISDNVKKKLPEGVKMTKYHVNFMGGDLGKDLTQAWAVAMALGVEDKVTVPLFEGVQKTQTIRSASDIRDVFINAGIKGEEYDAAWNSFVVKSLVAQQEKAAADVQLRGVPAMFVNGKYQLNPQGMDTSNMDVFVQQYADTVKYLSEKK

Structure (SMILES) | solubility [1] [µM] | Kd [2] [µM]
Cc1cc(Oc2ccc(CC(=O)N3CCN(C)C(=O)C3)cc2)ccc1C#N | 1000 (≈ 363 µg/mL) | 480
Cc1nc(CCN(C)C(=O)Cc2ccc(Oc3ccc(C#N)c(C)c3)cc2)no1 | 500 (≈ 195 µg/mL) | 230
Cc1cc(Oc2ccc(CC(=O)O)cc2)ccc1C#N | 1000 (≈ 267 µg/mL) | 
Cc1cc(Oc2ccc(CC(=O)N3CCOCC3)cc2)ccc1C#N | 500 (≈ 168 µg/mL) | 365
Cc1cc(Oc2ccc(CC(=O)NCCN3CCCN(C)CC3)cc2)ccc1C#N | 1000 (≈ 407 µg/mL) | 1100
Cc1cc(Oc2ccc(CC(=O)N3CCOCC3C(=O)O)cc2)ccc1C#N (racemic) | 1000 (≈ 380 µg/mL) | 290
CC(=O)N1CCN(C(=O)Cc2ccc(Oc3ccc(C#N)c(C)c3)cc2)CC1 | 1000 (≈ 377 µg/mL) | 430
N#Cc1ccc(Oc2ccc(O)cc2)cc1 |  | > 1000
CCN(CCn1cccn1)C(=O)Cc1ccc(Oc2ccc(C#N)c(C)c2)cc1 | 250 (≈ 97.1 µg/mL) | 62
